Experimental findings from patent US9884818B2, “Sulphamoylpyrrolamide derivatives and the use thereof as medicaments for the treatment of hepatitis B” (Janssen Sciences Ireland UC, priority 2013, dated 2018) are described below.

Data set [1] is described as follows: Cytotoxicity in HepG2 cells, Resazurin viability assay. The settings on record: human, HepG2 cells, HepG2 4 days CC50 (μM), incubated for 4 days, Resazurin assay.
In data set [2] the test system is HBV. As to the kind of experiment: Anti-HBV activity, HepG2.117 inducibly HBV producing cell line (Tet-off), intracellular HBV DNA by realtime PCR. Format: cell-based. Conditions: Hepatitis B virus, HepG2.117, 72 h, HepG2.117 cells, 3 days of treatment, intracellular HBV DNA; read-out: HepG2 117 EC50.
For data set [3], the system named is HBV. The experiment in a line: Anti-HBV activity, HepG2.2.15 stable transfected cell line, HBV DNA from secreted virions by realtime PCR. The settings on record: Hepatitis B virus, HepG2.2.15, 144 h, HepG2.2.15 cells, 6 days of treatment, HBV DNA from secreted virions; read-out: HepG2 2.15 EC50. Format: cell-based.

Compound `Cn1cc(S(=O)(=O)NC2(C(F)(F)F)CCOCC2)cc1C(=O)Nc1ccc(F)c(C#N)c1` [Compound 247, N-(3-cyano-4-fluoro-phenyl)-1-methyl-4-{[4-(trifluoromethyl)tetrahydropyran-4-yl]sulfamoyl}-1H-pyrrole-2-carboxamide] yielded a CC50 at 4 days in data set [1] above 25 µM. For the same compound, the EC50 in the data set with HBV [2] and in the data set on HBV [3] was 30 nM in each case.
In data set [1], `CCC(CC)(NS(=O)(=O)c1cc(C(=O)Nc2ccc(F)c(C#N)c2)n(C)c1)C(F)(F)F` [Compound 248, N-(3-cyano-4-fluoro-phenyl)-4-{[1-ethyl-1-(trifluoromethyl)propyl]sulfamoyl}-1-methyl-1H-pyrrole-2-carboxamide] displayed a CC50 at 4 days above 25 µM. Also, the figures for the EC50 in the data set with HBV [2] and in the data set on HBV [3] were 70 nM and 30 nM, respectively.
In turn, `Cn1cc(S(=O)(=O)NC(C)(C)CF)cc1C(=O)Nc1ccc(F)c(C#N)c1` [Compound 249, N-(3-cyano-4-fluoro-phenyl)-4-[(2-fluoro-1,1-dimethyl-ethyl)sulfamoyl]-1-methyl-1H-pyrrole-2-carboxamide] yielded a CC50 at 4 days in data set [1] of 1.7 µM. Moreover, the figures for the EC50 with HBV [2] and with HBV [3] were 180 nM and 70 nM, respectively.
Turning to `C[C@@H](NS(=O)(=O)c1cn(C)c(C(=O)Nc2cccc(Br)c2)c1Cl)C(F)(F)F` [Compound 250, N-(3-Bromophenyl)-3-chloro-1-methyl-4-{[(1R)-2,2,2-trifluoro-1-methylethyl]sulfamoyl}-1H-pyrrole-2-carboxamide], the CC50 at 4 days in data set [1] was found to be 20 µM. Besides, the values for the EC50 in the data set on HBV [2] and with HBV [3] were 400 nM and 7 nM, respectively.
On the same counts, the results for `Cn1cc(S(=O)(=O)NC2(C)COC2)c(F)c1C(=O)Nc1cccc(Br)c1` [Compound 251, N-(3-Bromophenyl)-3-fluoro-1-methyl-4-[(3-methyloxetan-3-yl)sulfamoyl]-1H-pyrrole-2-carboxamide] are above 25 µM, 60 nM and 10 nM.
In the same order, the values of `CC(NS(=O)(=O)c1cc(C(=O)Nc2ccc(F)c(Cl)c2F)n(C)c1)C(F)F` (stereo not drawn) [Compound 252, N-(3-chloro-2,4-difluoro-phenyl)-4-[(2,2-difluoro-1-methyl-ethyl)sulfamoyl]-1-methyl-1H-pyrrole-2-carboxamide] are above 25 µM, 80 nM and 50 nM.
In the case of `Cn1cc(S(=O)(=O)NC2(C(F)(F)F)CC2)cc1C(=O)Nc1ccc(F)c(Cl)c1F` [Compound 253, N-(3-chloro-2,4-difluoro-phenyl)-1-methyl-4-{[1-(trifluoromethyl)-cyclopropyl]sulfamoyl}-1H-pyrrole-2-carboxamide], the CC50 at 4 days in data set [1] is above 25 µM. Further, the EC50 in the data set on HBV [2] and in the data set with HBV [3] was 10 nM each time.
As to `Cn1cc(S(=O)(=O)NC(C)(C)C(F)(F)F)cc1C(=O)Nc1ccc(F)c(Cl)c1F` [Compound 254, N-(3-chloro-2,4-difluoro-phenyl)-1-methyl-4-[(2,2,2-trifluoro-1,1-dimethyl-ethyl)sulfamoyl]-1H-pyrrole-2-carboxamide], the CC50 at 4 days in data set [1] is above 25 µM. The EC50 in the data set on HBV [2] and in the data set with HBV [3] was 50 nM each time.
`Cn1cc(S(=O)(=O)NC2(C)CC2)cc1C(=O)Nc1ccc(F)c(Cl)c1F` [Compound 255, N-(3-chloro-2,4-difluoro-phenyl)-1-methyl-4-[(1-methylcyclopropyl)-sulfamoyl]-1H-pyrrole-2-carboxamide] came in with a CC50 at 4 days in data set [1] above 25 µM. Besides, the EC50 in the data set on HBV [2] was found to be 100 nM; in the data set with HBV [3], 90 nM.
On the same counts, the results for `Cn1cc(S(=O)(=O)NC2(C)CC(F)(F)C2)cc1C(=O)Nc1ccc(F)c(Cl)c1F` [Compound 256, N-(3-chloro-2,4-difluoro-phenyl)-4-[(3,3-difluoro-1-methyl-cyclo-butyl)sulfamoyl]-1-methyl-1H-pyrrole-2-carboxamide] are above 25 µM, 30 nM and 20 nM.
